Earlier results on one compound are cited in patent US20010036658A1, “Culture media for growing spirochetes” (priority 1997, published 2001).

Read-outs that look alike come from different tables or passages of the source.

As to `COc1cccc2c1C(=O)c1c(O)c3c(c(O)c1C2=O)C[C@@](O)(C(=O)CO)C[C@@H]3O[C@H]1C[C@H](N)[C@H](O)[C@H](C)O1` [doxorubicin], the results for the anti-bacterial activity entry with L-forms of bacteria (certain L-forms of bacteria) and in the data set on L-forms of bacteria (parent forms of the same bacteria) were “dramatic anti-bacterial activity” and “without any demonstrable effect”, respectively. Moreover, in the data set on erythrocytes, the “conversion of normal erythrocytes to echinocytes” value was “prevents”.
